Measurements: patent US11541129B2, “Nanoreservoir coated medical devices, biomaterials, and bioprosthetics” (Université de Liège, priority 2016, dated 2023)
Converted amounts (≈) assume the structure as drawn.

System: platelets
Test: ADP-induced platelet aggregation in PRP (light transmission aggregometry)
Type: cell-based
Conditions: Homo sapiens, 10 μM ADP, 37° C., read-out: IC50 concentration of free ticagrelor, ADP-induced platelet aggregation
Description: (A) PRP was pre-incubated for 10 min with a solution of nanoreservoir containing increasing concentrations of ticagrelor or with free ticagrelor, as indicated. Platelet aggregation was induced by adding 10 μM ADP at 37° C. under stirring conditions (1200 rpm). Percentages of maximum aggregation recorded by light transmission aggregometry are shown. Data represent means±SD (*p<0.05, **p<0.01, ***p<0.001). (B) Maximum platelet aggregation obtained in the presence of different ratios of ticagrelor-loaded nanogels and minocycline-loaded nanogels. NG: nanogel bearing PEG 1500; NGT: ticagrelor-loaded nanogel bearing PEG 1500; NGM: minocycline-loaded nanogel bearing PEG 1500. Data represent means±SD.
Platelet-rich-plasma (PRP) was prepared by centrifugation of citrate anticoagulated human blood at 100×g for 15 min at room temperature. Platelet aggregation experiments were performed on PRP aliquots under stirring (1200 rpm) at 37° C. using light aggregometry (Chrono-Log Model 700 aggregometer, Kordia).
For this purpose, 1 ml of nanogel suspensions loaded with increasing concentrations of ticagrelor was centrifuged at 12000 g for 15 minutes, washed 2 times in PBS and resuspended in 300 μL of PBS. 260 μL of platelet-rich-plasma (PRP) was incubated with 10 μL of purified nanogel suspensions for 10 min. Platelet aggregation was then induced by adding 10 μM ADP at 37° C. under stirring conditions. […]

## CCCSc1nc(N[C@@H]2C[C@H]2c2ccc(F)c(F)c2)c2nnn([C@@H]3C[C@H](OCCO)[C@@H](O)[C@H]3O)c2n1 [ticagrelor]
  IC50: 1.8 µg/mL (≈ 3.44 µM)
